# Assay results reported in patent US8044094B2, “Agents for preventing and treating disorders connected to impaired neurotransmission” (DSM IP Assets B.V., priority 2004, dated 2011).
# Key:
# [1] = biological target: human serotonin re-uptake transporter (hSERT) (Homo sapiens, UniProt P31645); assay: Serotonin uptake inhibition in HEK-293 cells stably expressing hSERT; type: cell-based; details: transfected HEK-293 cells; Ki from IC50 by Cheng-Prusoff; 20 nM (3H) serotonin; read-out: Inhibition constant Ki for tritiated serotonin uptake
# Description: HEK-293 cells stably expressing the human serotonin re-uptake transporter (hSERT) were obtained from R. Blakely, Vanderbilt University, USA. The cells were routinely grown in Dulbeco's Modified Eagles Medium, purchased from Bioconcept, Allschwil, Switzerland containing 10% fetal calf serum, penicillin, streptomycin, L-glutamine and the antibiotic G418 and passaged by trypsinisation. 1 day prior to the assay cells were seeded in the above mentioned medium. Immediately prior to the assay the medium was replaced by Krebs Ringers bicarbonate buffer, purchased from Sigma Chemicals Ltd., supplemented with 35 μM pargyline, 2.2 mM CaCl2, 1 mM ascorbic acid and 5 mM N-2-hydroxyethylpiperazine-N′-2-ethanesulfonic acid (buffer called “Hepes”). Serotonin uptake into the cells was determined by addition of radio-labeled (3H) serotonin (Amersham Biosciences GE Healthcare, Slough, UK) to a concentration of 20 nM, and incubation for 30 minutes at room temperature. Following removal of unincorporated label by gentle washing three times with the above buffer, incorporated serotonin was quantified by liquid scintillation counting.
# The effect of the coumarin ethers of formula I on the serotonin uptake and the citalopram binding was determined by its inclusion in the assay at a range of concentrations between 0.03 and 100 μM for 10 minutes prior to and during the addition of (3H) serotonin/citalopram. Serotonin uptake via the transporter and citalopram binding were both inhibited by the coumarin ethers of formula I in a dose dependent manner. The calculated inhibition constants Ki, derived from the measured IC50 using the Cheng—Prusoff equation (Y. C. Cheng, W. H. Prusoff, Biochem. Pharmacol. 1973, 22, p. 3099-3108), for inhibition of serotonin uptake and citalopram binding by coumarin ethers of the formula I are shown in Table 1.
# MAO-A = biological target: T1, MAO-A (Homo sapiens, UniProt P21397); assay: MAO-A inhibition, Amplex Red Monoamine Oxidase Assay Kit, colorimetric; type: biochemical; details: substrate p-tyramine
# T1 construct: purchased Sigma M7316
# T1 sequence (P21397 1-527): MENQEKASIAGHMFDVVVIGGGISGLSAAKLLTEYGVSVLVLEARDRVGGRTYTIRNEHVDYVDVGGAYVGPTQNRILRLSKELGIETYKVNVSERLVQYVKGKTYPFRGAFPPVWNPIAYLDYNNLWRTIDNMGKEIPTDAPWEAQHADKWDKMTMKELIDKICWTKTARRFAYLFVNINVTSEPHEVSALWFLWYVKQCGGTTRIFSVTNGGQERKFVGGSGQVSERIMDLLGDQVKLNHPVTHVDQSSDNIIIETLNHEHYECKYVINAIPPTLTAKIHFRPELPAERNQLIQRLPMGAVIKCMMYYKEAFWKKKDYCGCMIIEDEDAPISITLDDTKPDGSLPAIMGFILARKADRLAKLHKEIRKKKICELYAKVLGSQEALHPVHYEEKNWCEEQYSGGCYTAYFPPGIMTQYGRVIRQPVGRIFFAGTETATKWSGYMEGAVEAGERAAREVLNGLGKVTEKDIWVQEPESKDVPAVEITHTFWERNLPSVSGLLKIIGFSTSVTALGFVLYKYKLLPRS
# Description: From a stock solution of 0.0405 g of racemic obliquin (92.5%; equal to 37.5 mg of pure compound) in 750 μl of dimethylsulfoxide (DMSO), working solutions were prepared with a concentration of obliquin of 4. 10^−4M in reaction buffer (0.05 M sodium phosphate, pH 7.4, 0.2% DMSO). The final concentrations of obliquin in the test system were 10^−4 M, 10^−5 M, 10^−6 M, 10^−7 M.
# For determining the inhibition of monoaminoxidases' activity, the Amplex Red Monoamine Oxidase Assay Kit (Molecular Probes Nr._A-12214, Colorimetric version) was conducted according to manufacturers instructions.
# As substrates for MAO-A enzyme (Sigma Nr. M7316) p-tyramine and as substrate for MAO-B enzyme (Sigma Nr. M7441) benzylamine were used. The concentration of MAO-A enzyme was 8 Units/ml, and that of MAO-B 4 Units/ml in the working solution.
# MAO-A and MAO-B Assay, Colorimetric Version:
# For the assay, 50 μl of each working solution (see above) were used. As control solution, the obliquin containing working solution was replaced by 50 μl of the reaction buffer.
# 50 μl of diluted MAO-A with a final concentration of 2 Units/ml and 50 μl of diluted MAO-B with a final concentration of 1 Unit/ml, respectively, were added.
# 100 μl of the Amplex solution containing horseradish peroxidase (2 U/ml) and the substrate tyramine (for MAO-A) or the substrate benzylamine (for MAO-B) were added.
# To allow a subtraction of the background absorption a mixture of 100 μl of the Amplex solution and 100 μl of the reaction buffer was measured as a “blank”.
# The samples were incubated at room temperature in the dark for 1 hour, and then the extinction at 535 nm determined in a Softmax Microplate photometer (Molecular Device).
# Chain of human serotonin re-uptake transporter (hSERT) (P31645 whole entry): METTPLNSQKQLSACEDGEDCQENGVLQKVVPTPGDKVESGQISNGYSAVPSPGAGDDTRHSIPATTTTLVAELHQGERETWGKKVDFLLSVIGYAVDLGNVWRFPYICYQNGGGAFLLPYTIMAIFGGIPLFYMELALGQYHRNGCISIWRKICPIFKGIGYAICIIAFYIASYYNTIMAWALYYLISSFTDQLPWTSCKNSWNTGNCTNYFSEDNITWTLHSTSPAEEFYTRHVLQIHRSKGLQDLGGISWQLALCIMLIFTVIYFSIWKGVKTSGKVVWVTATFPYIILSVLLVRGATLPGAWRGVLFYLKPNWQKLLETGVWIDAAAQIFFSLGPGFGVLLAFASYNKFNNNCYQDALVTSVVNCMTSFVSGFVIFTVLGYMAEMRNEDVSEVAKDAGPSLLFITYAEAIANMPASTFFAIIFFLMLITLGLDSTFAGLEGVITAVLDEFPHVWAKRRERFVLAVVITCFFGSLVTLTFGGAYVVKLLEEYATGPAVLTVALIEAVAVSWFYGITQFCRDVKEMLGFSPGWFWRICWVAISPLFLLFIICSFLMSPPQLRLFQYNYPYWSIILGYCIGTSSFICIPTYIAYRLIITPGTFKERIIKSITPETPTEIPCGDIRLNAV
smiles,measurement,setting,value
"C=C(C)[C@H]1COc2cc3oc(=O)ccc3cc2O1 (racemic) [Obliquin, obliquin]",Ki,[1],4.9 µM
same,inhibition at 0.1 µM,MAO-A; obliquin 1 x 10^−7 M,2%
same,inhibition at 1 µM,MAO-A; obliquin 10 x 10^−7 M,2%
same,inhibition at 10 µM,MAO-A; obliquin 100 x 10^−7 M,6.5%
same,inhibition at 100 µM,MAO-A; obliquin 1000 x 10^−7 M,24.1%
